Entries after “also recorded” stand apart in the source; their conditions may differ. Like-named read-outs stand apart in the source and are kept apart here.
Assays:
human P450 2A6 = biological target: T1, human P450 2A6 (Homo sapiens, UniProt P11509); assay: Coumarin 7-hydroxylation inhibition assay in supersomes
T1 sequence (P11509 1-494): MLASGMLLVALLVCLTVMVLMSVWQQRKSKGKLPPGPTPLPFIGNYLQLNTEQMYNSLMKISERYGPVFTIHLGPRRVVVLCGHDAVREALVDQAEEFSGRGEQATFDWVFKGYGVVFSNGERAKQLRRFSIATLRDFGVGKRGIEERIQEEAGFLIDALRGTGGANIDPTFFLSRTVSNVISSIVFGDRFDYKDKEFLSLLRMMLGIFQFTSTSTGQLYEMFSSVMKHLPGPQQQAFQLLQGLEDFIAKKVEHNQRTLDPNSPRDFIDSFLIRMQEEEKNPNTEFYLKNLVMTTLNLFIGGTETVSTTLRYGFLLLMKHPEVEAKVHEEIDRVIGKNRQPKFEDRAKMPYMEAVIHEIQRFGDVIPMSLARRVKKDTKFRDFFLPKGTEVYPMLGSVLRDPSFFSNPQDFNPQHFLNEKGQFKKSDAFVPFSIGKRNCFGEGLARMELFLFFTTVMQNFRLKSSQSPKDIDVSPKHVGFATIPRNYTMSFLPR

human P450 1A1 [1] = biological target: T2, human P450 1A1 (Homo sapiens, UniProt P04798); assay: EROD; type: biochemical; details: for IC50 P450 1A1: human P450 1A1 supersomes, EROD, 5 μM substrate, 37 °C, Dixon plot
T2 sequence (P04798 1-512): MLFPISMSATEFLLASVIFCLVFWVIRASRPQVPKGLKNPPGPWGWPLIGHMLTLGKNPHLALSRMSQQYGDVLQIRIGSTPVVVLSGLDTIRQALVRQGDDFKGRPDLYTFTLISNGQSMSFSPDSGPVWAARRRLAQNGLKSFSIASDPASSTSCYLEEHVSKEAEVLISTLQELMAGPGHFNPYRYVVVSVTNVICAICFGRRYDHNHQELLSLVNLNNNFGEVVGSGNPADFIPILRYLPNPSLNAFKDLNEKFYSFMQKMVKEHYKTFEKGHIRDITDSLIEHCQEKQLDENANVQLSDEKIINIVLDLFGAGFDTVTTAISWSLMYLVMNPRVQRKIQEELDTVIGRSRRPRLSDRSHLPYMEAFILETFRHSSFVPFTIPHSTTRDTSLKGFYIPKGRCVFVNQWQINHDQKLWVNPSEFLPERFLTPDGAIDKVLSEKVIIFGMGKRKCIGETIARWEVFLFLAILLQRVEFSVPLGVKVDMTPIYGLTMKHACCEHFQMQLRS

human P450 1A2 [2] = biological target: T3, human P450 1A2 (Homo sapiens, UniProt P05177); assay: Mechanism-based; type: biochemical
T3 sequence (P05177 1-516): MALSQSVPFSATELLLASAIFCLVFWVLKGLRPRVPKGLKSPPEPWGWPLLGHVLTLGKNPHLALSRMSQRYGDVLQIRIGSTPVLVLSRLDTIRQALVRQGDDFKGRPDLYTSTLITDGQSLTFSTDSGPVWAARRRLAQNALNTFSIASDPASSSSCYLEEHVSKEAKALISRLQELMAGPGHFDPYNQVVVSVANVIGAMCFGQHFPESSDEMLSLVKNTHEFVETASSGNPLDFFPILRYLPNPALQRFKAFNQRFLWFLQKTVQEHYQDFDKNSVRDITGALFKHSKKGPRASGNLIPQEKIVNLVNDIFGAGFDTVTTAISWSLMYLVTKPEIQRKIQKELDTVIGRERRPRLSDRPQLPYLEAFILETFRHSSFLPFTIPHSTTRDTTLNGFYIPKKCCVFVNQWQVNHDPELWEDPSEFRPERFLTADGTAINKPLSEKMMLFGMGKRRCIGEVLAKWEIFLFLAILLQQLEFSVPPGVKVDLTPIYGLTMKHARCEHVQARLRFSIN

rat P4502B1 = biological target: T4, rat P4502B1 (Rattus norvegicus, UniProt P00176); assay: PROD
T4 sequence (P00176 1-491): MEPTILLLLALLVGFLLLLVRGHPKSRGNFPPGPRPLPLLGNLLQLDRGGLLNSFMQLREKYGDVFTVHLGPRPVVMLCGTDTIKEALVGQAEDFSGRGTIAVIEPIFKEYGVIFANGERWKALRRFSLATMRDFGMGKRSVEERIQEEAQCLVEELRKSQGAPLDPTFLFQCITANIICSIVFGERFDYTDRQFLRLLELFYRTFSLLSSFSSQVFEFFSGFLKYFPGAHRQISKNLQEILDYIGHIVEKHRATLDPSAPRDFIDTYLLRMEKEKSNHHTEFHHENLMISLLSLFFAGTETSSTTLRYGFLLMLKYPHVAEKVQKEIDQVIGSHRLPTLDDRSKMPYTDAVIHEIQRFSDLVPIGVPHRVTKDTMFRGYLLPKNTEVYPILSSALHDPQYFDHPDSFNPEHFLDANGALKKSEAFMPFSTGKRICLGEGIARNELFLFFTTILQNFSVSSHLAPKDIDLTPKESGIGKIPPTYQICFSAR

CYP1A1 = biological target: T5, CYP1A1 (Homo sapiens, UniProt P04798); assay: Mechanism-based; type: biochemical; details: human, human P450 1A1 supersomes, pH 7.6, probe 7-ethoxyresorufin (EROD)
T5 sequence (P04798 1-512): T2 sequence (P04798 1-512)

human P450 1A1 [3] = biological target: T2, human P450 1A1; assay: Mechanism-based; type: biochemical
human P450 1A2 [4] = biological target: T3, human P450 1A2; assay: MROD; type: biochemical
[5] = 5 min preincubation in presence and absence of NADPH

| SMILES | IC50 (human P450 2A6) | IC50 P450 1A1 (human P450 1A1 [1]) | Ki (human P450 1A2 [2]) | Mechanism-based inhibition of P450 1A2 (result in words) (human P450 1A2 [2]; [5]) | kinact (human P450 1A2 [2]; read-out: Kinactivation, P450 1A2) | IC50 (rat P4502B1) | KI (inactivation) at 6 min (CYP1A1) | Mechanism-based inhibition of P450 1A1 (result in words) (human P450 1A1 [3]; [5]) | kinact (human P450 1A1 [3]; read-out: Kinactivation (rate constant for maximal inactivation at saturation), P450 1A1) | IC50 (human P450 1A1 [1]) | IC50 (human P450 1A2 [4]) | IC50 P450 1A2 (human P450 1A2 [4]; human P450 1A2 supersomes, MROD, 5 μM substrate, 37 °C, Dixon plot) | Mechanism-based inhibition of P450 1A2 (result in words) (human P450 1A2 [2]) | Mechanism-based inhibition of P450 1A1 (result in words) (human P450 1A1 [3]) |
| --- | --- | --- | --- | --- | --- | --- | --- | --- | --- | --- | --- | --- | --- | --- |
| Cc1cc(Cl)c2c(c1N)C(=O)c1ccccc1C2=O [Compound 1, 1-Amino-4-chloro-2-methylanthracene-9,10-dione] | > 50 µM | submicromolar potency | 0.5 µM | act as a mechanism-based inhibitor; also recorded: demonstrated mechanism-based inhibition | 0.00133 s⁻¹ | > 50 µM | 5.38 µM | act as a mechanism-based inhibitor; also recorded: demonstrated mechanism-based inhibition | 0.0262 s⁻¹ | – | – | – | – | – |
| Nc1ccc(O)c2c1C(=O)c1ccccc1C2=O [Compound 2, 1-amino-4-hydroxyanthracene-9,10-dione] | > 50 µM | – | – | did not show mechanism-based inhibition; also recorded: does not demonstrate mechanism-based inhibition | – | 2.15 µM | – | did not show mechanism-based inhibition; also recorded: does not demonstrate mechanism-based inhibition | – | 2.09 µM | 0.53 µM | – | – | – |
| CC(C)(C)C1=CC(=O)c2c(ccc(C(C)(C)C)c2O)C1=O [Compound 8, 2,6-Di-tert-butyl-5-hydroxynaphthalene-1,4-dione] | > 50 µM | did not inhibit | – | – | – | 5.66 µM | – | – | – | > 50 µM | > 50 µM | did not inhibit | – | – |
| Cc1cc(O)c2c(c1)C(=O)c1cc(O)cc(O)c1C2=O [emodin, Emodin, reference compound] | > 50 µM | – | – | – | – | 14.9 µM | – | – | – | – | – | – | did not cause mechanism-based inhibition | did not cause mechanism-based inhibition |
